The source of these data is patent publication US8188064B2, “Vitamin D analogs for obesity prevention and treatment” (Wisconsin Alumni Research Foundation, priority 2003, dated 2012).

In data set [1] the test system is Human promyelocytic leukemia (HL60) cells. The experiment in a line: HL-60 differentiation (nitro blue tetrazolium reduction). Particulars: concentration 1×10^−7 M. The format is cell-based. In short, it runs like this:
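Four-day drug treatment of cells grown in RPMI-1640/10% FBS at 37 °C, 5% CO2, ethanol ≦0.2%; then NBT reduction, percent of 200 cells with black-blue formazan.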

Data set [2] is described as follows: Intestinal calcium transport (everted gut sac). Particulars: result in words, vitamin D deficient rat model, compared to 1α,25(OH)2D3. The format is in vivo. In short, it runs like this: (§1)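 Male weanling Sprague-Dawley rats, vitamin D-deficient, cycled through 0.47% and 0.02% Ca diets, dosed during the last 0.02% Ca week. Four ip doses ~24 h apart; serum calcium measured 24 h after last dose. First 10 cm of intestine taken for everted gut sac calcium transport.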

A short description of data set [3]: Bone calcium mobilization (serum calcium on low calcium diet). Type of data set: in vivo, rat. The conditions noted are these: result in words, vitamin D deficient rat model, compared to 1α,25(OH)2D3. In short, it runs like this: as §1
Data set [4] in a line: Hypercalcemia / serum calcium analysis. The format is in vivo, rat. The conditions noted are these: normal vitamin D sufficient rats, very high oral doses.
In a further data set the test system is 3T3-L1 cells. Description: Inhibition of 3T3-L1 differentiation into mature adipocytes (Oil-Red-O staining). Type of data set: cell-based, murine. The conditions noted are these: for inhibition of differentiation of 3T3-L1 cells into mature adipocytes (Oil-Red-O staining): result in words, MDI-treated cells, staining at day 10.
The next data set deals with SCD-1 mRNA. Description: Inhibition of SCD-1 mRNA induction in 3T3-L1 cells (RT-PCR). Type of data set: cell-based, murine. Particulars: for EC50: Mus musculus, 3T3-L1, 96 h, read-out: EC50 for inhibition of murine 3T3-L1 expression of SCD-1 mRNA; for inhibition of SCD-1 mRNA induction: result in words, MDI-treated 3T3-L1 cells. The source says:
Chomczynski, P. et al., Anal. […] NO: 4)).

The test system of another data set is PPARγ2 mRNA. Description: PPARγ2 mRNA induction by MDI in 3T3-L1 cells (RT-PCR). Type of data set: cell-based, murine. On the procedure: RT-PCR was carried out as described above with 0.5 μM each primer, 2 mM MgCl2, and 1×SYBR Green master mix.
The subject of the next data set is C/EBPα mRNA. The experiment in a line: C/EBPα mRNA induction by MDI in 3T3-L1 cells (RT-PCR). The format is cell-based, murine. The procedure:
Analysis of C/EBPα was determined by PCR using murine primers (upstream=CGA GTA GGG GGA GCA AAA A (SEQ ID NO: 7); downstream=GCA AAA AGC MG GGA TTA GGA G (SEQ ID NO: 8)). RT-PCR was carried out as described above with 0.5 μM each primer, 2 mM MgCl2, and 1×SYBR Green master mix. The murine C/EBPα primers have a 60° C. annealing temperature and a 12 second extension time.

Data set [5] addresses T1, full-length recombinant rat vitamin D receptor (Rattus norvegicus, UniProt P13053).
T1 construct: Full-length recombinant rat receptor was expressed in E. coli; histidine tag (C); made in house; host or cells: E. coli BL21(DE3) Codon Plus RIL
T1 sequence (P13053 1-423): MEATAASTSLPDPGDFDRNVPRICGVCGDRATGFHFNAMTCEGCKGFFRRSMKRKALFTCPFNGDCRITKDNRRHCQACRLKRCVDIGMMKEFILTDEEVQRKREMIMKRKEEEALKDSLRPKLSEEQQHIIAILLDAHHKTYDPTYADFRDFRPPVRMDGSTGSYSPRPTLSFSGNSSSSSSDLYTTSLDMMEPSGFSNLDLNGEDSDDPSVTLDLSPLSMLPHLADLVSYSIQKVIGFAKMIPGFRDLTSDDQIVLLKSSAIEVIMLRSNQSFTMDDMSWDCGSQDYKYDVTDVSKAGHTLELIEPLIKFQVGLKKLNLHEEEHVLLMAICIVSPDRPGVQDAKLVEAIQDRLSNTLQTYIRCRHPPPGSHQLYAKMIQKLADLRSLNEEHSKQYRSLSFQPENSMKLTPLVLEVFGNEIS
The experiment in a line: Vitamin D receptor binding (competition with 3H-1,25(OH)2D3). Particulars: result in words, competition for tritiated hormone binding. The procedure, abridged: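 Purified His-tagged receptor from E. coli, diluted in TEDK50 (pH 7.4, 5 mM DTT, 150 mM KCl) with 0.1% Chaps, set so ≤20% of radioligand bound. Competition against 1 nM final 3H-1,25(OH)2D3, ethanol ≤10%, overnight on ice; bound ligand collected on hydroxylapatite, washed, counted by scintillation.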

The term EC50 denotes the concentration that produces a half-maximal response.

Entries after “also recorded” stand apart in the source; their conditions may differ. Where two headings read alike, the source gives them in different places. Some results are limits rather than exact numbers.

For `C=C1/C(=C\C=C2/CCC[C@]3(C)[C@@H]([C@H](C)CCCC(C)(C)O)CC[C@@H]23)C[C@@H](O)C[C@@H]1O` [1α,25(OH)2D3, 1α,25-dihydroxyvitamin D3, reference compound], in data set [1], the “cells induced to differentiate in the NBT assay” value is on record as approximately 90%. For the same compound, the “intestinal calcium transport activity” value in data set [2] (listed as calcitriol) is given as “quite potent; also recorded: active”. Besides, the “bone calcium mobilization activity” value in [3] (listed as calcitriol) is “quite potent; also recorded: active”. The “increase in serum calcium” value in data set [4] was “frank hypercalcemia and even death”. The “inhibition of differentiation of 3T3-L1 cells into mature adipocytes (Oil-Red-O staining)” value with 3T3-L1 cells is reported as “inhibit; also recorded: inhibition”. In addition, in the data set with SCD-1 mRNA, the EC50 came to 0.2 nM and the “inhibition of SCD-1 mRNA induction” value is “inhibition”. The “PPARγ mRNA induction by MDI” value with PPARγ2 mRNA (compound present at 1×10^−8 M) is reported as “not induced”. For the same compound, in the data set on C/EBPα mRNA (compound present at 1×10^−8 M), the “C/EBPα mRNA induction by MDI” value is “not induced”.

On to `C=C1[C@H](O)CC(=C/C=C2\CCC[C@]3(C)[C@@H]([C@@H](C)CCCC(C)(C)O)CC[C@@H]23)C[C@H]1O` [2-MD], for which the “binding to the vitamin D receptor, compared to 1α,25(OH)2D3” value in data set [5] is “as well as the native hormone”. Moreover, the “intestinal calcium transport activity” value in data set [2] is on record as “active”. For the same compound, the “bone calcium mobilization activity” value in [3] is on record as “active”. The “inhibition of differentiation of 3T3-L1 cells into mature adipocytes (Oil-Red-O staining)” value with 3T3-L1 cells is “highest activity; also recorded: so much greater; also recorded: inhibit”. In addition, in the data set with SCD-1 mRNA (SCD-1 mRNA at 4 days), the EC50 is approximately 0.0029 nM. The “times more potent than the native hormone calcitriol” value with SCD-1 mRNA (inhibition of 3T3-L1 differentiation (FIG. 2 and FIG. 3)) is recorded as “at least 70 times”. The “PPARγ mRNA induction by MDI” value in the data set on PPARγ2 mRNA (compound present at 1×10^−10 M) is “prevented these mRNAs from being upregulated; also recorded: not induced”. In addition, the “C/EBPα mRNA induction by MDI” value with C/EBPα mRNA (compound present at 1×10^−10 M) is listed as “prevented these mRNAs from being upregulated; also recorded: not induced”.

On to `C=C1[C@H](O)CC(=C/C=C2\CCC[C@]3(C)[C@@H]([C@@H](C)CC)CC[C@@H]23)C[C@H]1O` [2-MbisP], for which the “binding to the vitamin D receptor, compared to 1α,25(OH)2D3” value in data set [5] (listed as 1α-(20S)2-MbisP) is listed as “nearly the same affinity”; in [5] (listed as (20S)2-MbisP) it was “as or nearly effective as calcitriol”. Besides, the “intestinal calcium transport activity” value in data set [2] was “little, if any, activity”. Further, the “bone calcium mobilization activity” value in [3] was “little, if any, activity”. Further, the “increase in serum calcium” value in [4] is “without producing an increase in serum calcium”. Also, the “difference in potency from the native hormone in inhibiting differentiation” value in the data set with 3T3-L1 cells (MDI-induced 3T3-L1 cells) is less than 0.5 log unit. Further, the “inhibition of differentiation of 3T3-L1 cells into mature adipocytes (Oil-Red-O staining)” value is given as “inhibit; also recorded: effective” in the data set on 3T3-L1 cells; “nearly equipotent” in the data set with 3T3-L1 cells (listed as 1α-(20S)2-MbisP); “inhibition” in the data set with 3T3-L1 cells (listed as (1α,20S)2MbisP); “nearly as potent as the native hormone” with 3T3-L1 cells (listed as (20S)2-MbisP); “inhibition” in the data set on 3T3-L1 cells (listed as (20S)2M-bisP); “inhibition” in the data set with 3T3-L1 cells (listed as (20S)2MbisP). In addition, the “inhibition of differentiation of MDI-treated 3T3-L1 cells (oil-red-O staining)” value in the data set on 3T3-L1 cells (tested at 1×10^−8.5 M) is reported as “active”. Also, the EC50 in the data set with SCD-1 mRNA (SCD-1 mRNA at 4 days) was approximately 0.54 nM. Besides, the “times less potent than the native hormone 1,25-(OH)2D3” value with SCD-1 mRNA (inhibition of SCD-1 mRNA induction) fell in the range of 2 to 3 times. The “inhibition of SCD-1 mRNA induction” value was “inhibition” in the data set with SCD-1 mRNA (listed as (1α,20S)2MbisP) and “nearly as potent as the native hormone” in the data set on SCD-1 mRNA (listed as (20S)2-MbisP). Moreover, in the data set with SCD-1 mRNA (tested at 1×10^−8.5 M), the “inhibition of SCD1 mRNA induction” value is “active”. For the same compound, in the data set on PPARγ2 mRNA (compound present at 1×10^−8 M), the “PPARγ mRNA induction by MDI” value is listed as “not induced”. Besides, in the data set on C/EBPα mRNA (compound present at 1×10^−8 M), the “C/EBPα mRNA induction by MDI” value is “not induced”.
